# In ChEMBL document CHEMBL4266049, “A Steroid-Type Antioxidant Targeting the Keap1/Nrf2/ARE Signaling Pathway from the Soft Coral Dendronephthya gigantea” (J Nat Prod, 2018):
# Activity calls are given as the source filed them. The calls are words filed in the database; no cut-off is given here.
# Experiments:
# [1] = system: PC-12; test: Cytoprotective activity against H2O2-induced oxidative injury in rat PC12 cells assessed as […] in cell viability at 10 uM pretreated for 24 hrs followed by 350 uM H2O2 challenge measured after 24 hrs by MTT assay; assay type: functional, cell-based
# [2] = system: PC-12; test: Cytotoxicity against rat PC12 cells assessed as reduction in cell viability at 10 uM after 24 hrs by MTT assay; assay type: cell-based; conditions: pc-12, 24 h
# [3] = system: PC-12; test: Cytoprotective activity against H2O2-induced oxidative injury in rat PC12 cells assessed as […] in cell viability at 10 uM pretreated for 24 hrs followed by 500 uM H2O2 challenge measured after 24 hrs by MTT assay; assay type: functional, cell-based
# [4] = system: PC-12; test: Cytoprotective activity against H2O2-induced oxidative injury in rat PC12 cells assessed as cell viability at 10 uM pretreated for 24 hrs followed by 350 uM H2O2 challenge measured after 24 hrs by MTT assay (reference value: 60%); assay type: functional
# [5] = molecular target: T1, KEAP1/NRF2 (Rattus norvegicus) (UniProt O54968+P57790); test: Inhibition of Keap1/Nrf2 signaling in rat PC12 cells assessed as induction of ARE by measuring increase in HO-1 expression at 10 uM after 24 hrs by Western blot analysis; assay type: cell-based
# [6] = system: PC-12; test: Cytoprotective activity against H2O2-induced oxidative injury in rat PC12 cells assessed as increase in colony formation at 5 uM pretreated for 24 hrs followed by H2O2 challenge by crystal violet staining based assay; assay type: functional, cell-based
# [7] = system: PC-12; test: Cytoprotective activity against H2O2-induced oxidative injury in rat PC12 cells assessed as reduction in intracellular reactive oxygen species formation at 10 uM pretreated for 24 hrs followed by H2O2 challenge measured after 3 hrs by DCFH-DA dye based fluorescence microscopic analysis; assay type: functional, cell-based
# [8] = system: PC-12; test: Cytoprotective activity against H2O2-induced oxidative injury in rat PC12 cells assessed as inhibition of MDA production at 10 uM pretreated for 24 hrs followed by H2O2 challenge measured after 16 hrs; assay type: functional, cell-based
# [9] = system: PC-12; test: Cytoprotective activity against H2O2-induced oxidative injury in rat PC12 cells assessed as increase in colony formation at 1 to 2 uM pretreated for 24 hrs followed by H2O2 challenge by crystal violet staining based assay; assay type: functional, cell-based
# [10] = system: PC-12; test: Cytoprotective activity against H2O2-induced oxidative injury in rat PC12 cells harboring Nrf2 siRNA assessed as increase in cell viability at 10 uM pretreated for 24 hrs followed by H2O2 challenge measured after 24 hrs by MTT assay; assay type: functional, cell-based
# [11] = system: PC-12; test: Cytoprotective activity against H2O2-induced oxidative injury in rat PC12 cells harboring siRNA assessed as increase in cell viability at 10 uM pretreated for 24 hrs followed by H2O2 challenge measured after 24 hrs by MTT assay; assay type: functional, cell-based
# [12] = system: PC-12; test: Cytoprotective activity against H2O2-induced oxidative injury in rat PC12 cells harboring siRNA assessed as increase in colony formation at 2 uM pretreated for 24 hrs followed by H2O2 challenge by crystal violet staining based assay; assay type: functional, cell-based
# [13] = molecular target: T1, KEAP1/NRF2 (Rattus norvegicus); test: Inhibition of Keap1/Nrf2 signaling in rat PC12 cells assessed as induction of ARE by measuring increase in HO-1 expression after 24 hrs by Western blot analysis; assay type: cell-based
# [14] = system: PC-12; test: Cytoprotective activity against H2O2-induced oxidative injury in rat PC12 cells assessed as reduction in intracellular reactive oxygen species formation pretreated for 24 hrs followed by H2O2 challenge measured after 3 hrs by DCFH-DA dye based fluorescence microscopic analysis; assay type: functional, cell-based
# [15] = molecular target: T1, KEAP1/NRF2 (Rattus norvegicus); test: Inhibition of Keap1/Nrf2 signaling in rat PC12 cells assessed as induction of nuclear translocation at 10 uM after 6 hrs by DAPI staining based fluorescence microscopic analysis; assay type: cell-based
# [16] = system: PC-12; test: Cytoprotective activity against H2O2-induced oxidative injury in rat PC12 cells harboring Nrf2 siRNA assessed as increase in colony formation at 2 uM pretreated for 24 hrs followed by H2O2 challenge by crystal violet staining based assay; assay type: functional, cell-based
# [17] = system: PC-12; test: Cytoprotective activity against H2O2-induced oxidative injury in rat PC12 cells assessed as inhibition of MDA production pretreated for 24 hrs followed by H2O2 challenge measured after 16 hrs; assay type: functional, cell-based
# [18] = system: PC-12; test: Cytoprotective activity against H2O2-induced oxidative injury in rat PC12 cells assessed as decrease in LDH release after 24 hrs; assay type: functional, cell-based
Structure (SMILES),Activity [1],Activity [2],other results
CC(=O)O[C@H]1C=C2C[C@@H](O)CC[C@]2(CO)[C@H]2CC[C@]3(C)[C@@H]([C@H](C)/C=C/CC(C)C)CC[C@H]3[C@H]12,inactive,Non-Toxic,
C=C(CC[C@@H](C)[C@H]1CC[C@H]2[C@@H]3C(=O)[C@H]4O[C@]45C[C@@H](O)CC[C@]5(COC(C)=O)[C@H]3CC[C@]12C)C(C)C,inactive,Non-Toxic,
CC(=O)O[C@H]1C=C2C[C@@H](O)CC[C@]2(CO)[C@H]2CC[C@]3(C)[C@@H]([C@H](C)CCCC(C)C)CC[C@H]3[C@H]12,inactive,Non-Toxic,
C=C(CC[C@@H](C)[C@H]1CC[C@H]2[C@@H]3C(=O)[C@H]4O[C@]45C[C@@H](O)CC[C@]5(CO)[C@H]3CC[C@]12C)C(C)C,inactive,Non-Toxic,
C=C(CC[C@@H](C)[C@H]1CC[C@H]2[C@@H]3C(=O)[C@H]4O[C@]45C[C@@H](O)CC[C@]5(COC(C)=O)[C@H]3[C@H](OC(C)=O)C[C@]12C)C(C)C,inactive,Non-Toxic,
C=C(CC[C@@H](C)[C@H]1CC[C@@H]2[C@]1(C)C[C@H](O)[C@@H]1[C@@]3(C)C[C@H](O)[C@H](O)[C@@H](C)[C@@H]3CC(=O)[C@@]21O)C(C)C,inactive,Non-Toxic,
C=C(CC[C@@H](C)[C@H]1CC[C@H]2[C@@H]3CC=C4C[C@@H](O)CC[C@]4(CO)[C@H]3CC[C@]12C)C(C)C,inactive,Non-Toxic,
CC(C)CCC[C@@H](C)[C@H]1CC[C@H]2[C@@H]3C(=O)C=C4C[C@@H](O)CC[C@]4(C)[C@H]3CC[C@]12C,Active,,
C=C(CC[C@@H](C)[C@H]1CC[C@H]2[C@@H]3[C@@H](OC(C)=O)C=C4C[C@@H](O)CC[C@]4(CO)[C@H]3CC[C@]12C)C(C)C,inactive,Non-Toxic,
C=C(CC[C@@H](C)[C@H]1CC[C@H]2[C@@H]3[C@H](O)C=C4C[C@@H](O)CC[C@]4(COC(C)=O)[C@H]3CC[C@]12C)C(C)C,,Non-Toxic,Activity [3]: inactive; Activity [4]: 70%
CC(C)(C)c1cc(O)ccc1O,,,inhibition [5]: Active; Activity [6]: Active; Activity [3]: Active; Activity [7]: Active; inhibition [8]: Active
CC(C)CCC[C@@H](C)[C@H]1CC[C@H]2[C@@H]3[C@H](O)CC4=CC(=O)CC[C@]4(C)[C@H]3CC[C@]12C,Active,,
C=C(/C=C/[C@@H](C)[C@H]1CC[C@H]2[C@@H]3C(=O)[C@H]4O[C@]45C[C@@H](O)CC[C@]5(COC(C)=O)[C@H]3CC[C@]12C)C(C)C,inactive,Non-Toxic,
C=C(/C=C/[C@@H](C)[C@H]1CC[C@@H]2[C@]1(C)C[C@H](O)[C@@H]1[C@@]3(C)C[C@H](O)[C@H](OC(C)=O)[C@@H](C)[C@@H]3CC(=O)[C@@]21O)C(C)C,inactive,Non-Toxic,
C=C(/C=C/[C@@H](C)[C@H]1CC[C@H]2[C@@H]3[C@@H](OC(C)=O)C=C4C[C@@H](O)CC[C@]4(CO)[C@H]3CC[C@]12C)C(C)C,inactive,Non-Toxic,
C=C(CC[C@@H](C)[C@H]1CC[C@H]2[C@@H]3C(=O)C=C4C[C@@H](O)CC[C@]4(COC(C)=O)[C@H]3CC[C@]12C)C(C)C,,Non-Toxic,Activity [9]: Active; Activity [10]: inactive; Activity [11]: Active; Activity [3]: Active; Activity [12]: Active; inhibition [13]: Dose-dependent effect; Activity [14]: Dose-dependent effect; inhibition [15]: Active; Activity [16]: inactive; inhibition [17]: Dose-dependent effect; Activity [18]: Dose-dependent effect; Activity [4]: 70%
C=C(/C=C/[C@@H](C)[C@H]1CC[C@@H]2[C@]1(C)C[C@H](O)[C@@H]1[C@@]3(C)C[C@H](O)[C@H](O)[C@@H](C)[C@@H]3CC(=O)[C@@]21O)C(C)C,inactive,Non-Toxic,
C=C(CC[C@@H](C)[C@H]1CC[C@H]2[C@@H]3[C@@H](O)C=C4C[C@@H](O)CC[C@]4(C)[C@H]3CC[C@]12C)C(C)C,inactive,Non-Toxic,
